Source: patent US11524966B1 (Valo Early Discovery, Inc., priority 2017, dated 2022)

Biological target: T1, USP25 (USP25-His6, Boston Biochem E-546) (Homo sapiens, UniProt Q9UHP3)
T1 construct: His6; purchased Boston Biochem E-546
T1 sequence (Q9UHP3 1-1055): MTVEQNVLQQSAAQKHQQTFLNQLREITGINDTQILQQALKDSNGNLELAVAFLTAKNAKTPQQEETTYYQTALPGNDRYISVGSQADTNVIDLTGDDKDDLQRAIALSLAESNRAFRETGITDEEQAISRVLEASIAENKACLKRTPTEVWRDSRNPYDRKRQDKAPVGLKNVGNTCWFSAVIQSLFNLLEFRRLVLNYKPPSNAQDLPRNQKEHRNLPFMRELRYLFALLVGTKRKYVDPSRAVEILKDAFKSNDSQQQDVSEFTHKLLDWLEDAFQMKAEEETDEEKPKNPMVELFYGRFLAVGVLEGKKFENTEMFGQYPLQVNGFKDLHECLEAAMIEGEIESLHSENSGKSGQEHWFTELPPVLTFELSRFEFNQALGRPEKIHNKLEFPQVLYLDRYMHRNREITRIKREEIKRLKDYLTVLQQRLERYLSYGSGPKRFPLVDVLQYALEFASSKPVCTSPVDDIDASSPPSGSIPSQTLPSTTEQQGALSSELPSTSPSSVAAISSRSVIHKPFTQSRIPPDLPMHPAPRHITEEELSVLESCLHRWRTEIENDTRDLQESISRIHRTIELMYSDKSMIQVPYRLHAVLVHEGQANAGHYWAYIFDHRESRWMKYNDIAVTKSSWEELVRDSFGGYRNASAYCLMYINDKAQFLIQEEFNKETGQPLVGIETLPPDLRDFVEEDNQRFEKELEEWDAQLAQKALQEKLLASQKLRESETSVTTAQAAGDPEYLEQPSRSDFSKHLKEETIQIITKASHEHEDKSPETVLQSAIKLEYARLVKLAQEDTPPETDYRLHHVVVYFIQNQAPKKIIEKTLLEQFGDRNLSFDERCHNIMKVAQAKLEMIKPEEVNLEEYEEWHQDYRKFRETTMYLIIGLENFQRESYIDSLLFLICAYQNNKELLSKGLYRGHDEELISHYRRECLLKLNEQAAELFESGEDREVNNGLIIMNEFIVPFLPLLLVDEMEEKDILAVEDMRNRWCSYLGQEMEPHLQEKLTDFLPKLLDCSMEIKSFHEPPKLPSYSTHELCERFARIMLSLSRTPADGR
Assay: Ubiquitin-Rhodamine 110 Assay for USP25 Activity, Example A-2
Assay type: biochemical
Details: Ubiquitin-Rhodamine 110 assay, Example A-2; read-out: USP25 A-2 IC50 range
Summary of the method: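 75 pM USP25-His6 was preincubated 30 min with compound (10-point 3-fold series, 25 μM–1.3 nM) in pH 8.0 Tris buffer with BME, BGG and Triton X-100. Then 25 nM Ub-Rh110 (<<Km) was added for 45 min at room temperature, stopped with citric acid, fluorescence read at 485/535 nm, IC50 by 4-parameter fit.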

Row | SMILES | IC50 [nM]
1 | Cc1ccc2c(N)c(C(=O)N[C@H]3CCc4nc(N5C[C@@H]6NCCC(F)(F)[C@@H]6C5)ccc4C3)sc2n1 [Example 330, N-[(6S)-2-[(4aR,7aR)-4,4-difluoro-octahydro-1H-pyrrolo[3,4-b]pyridin-6-yl]-5,6,7,8-tetrahydroquinolin-6-yl]-3-amino-6-methylthieno[2,3-b]pyridine-2-carboxamide] | > 2000
2 | COC[C@@H]1CN(c2nc3c(cc2F)C[C@@H](NC(=O)c2sc4nc(C)ccc4c2N)CC3)C[C@@H]1N [Example 300, 3-amino-N-[(6S)-2-[(3R,4R)-3-amino-4-(methoxymethyl)pyrrolidin-1-yl]-3-fluoro-5,6,7,8-tetrahydroquinolin-6-yl]-6-methylthieno[2,3-b]pyridine-2-carboxamide] | > 2000
3 | CO[C@H]1CN(c2ccc3c(n2)CC[C@H](NC(=O)c2sc4nc(C)ccc4c2N)C3)C[C@H]1N [Example 270, 3-amino-N-[(6S)-2-[(3R,4S)-3-amino-4-methoxypyrrolidin-1-yl]-5,6,7,8-tetrahydroquinolin-6-yl]-6-methylthieno[2,3-b]pyridine-2-carboxamide] | > 2000
4 | CO[C@H]1CCN(c2ccc3c(c2)OC[C@H](NC(=O)c2sc4nc(C)cc(C)c4c2N)C3)C[C@@H]1N [Example 317, 3-amino-N-[(3R)-7-[(3S,4S)-3-amino-4-methoxypiperidin-1-yl]-3,4-dihydro-2H-1-benzopyran-3-yl]-4,6-dimethylthieno[2,3-b]pyridine-2-carboxamide] | 200 to 2000
5 | CO[C@@]1(C)CN(c2ccc3c(n2)OC[C@H](NC(=O)c2sc4nc(C)ccc4c2N)C3)C[C@@H]1N [Example 325, 3-amino-N-[(3R)-7-[(3S,4S)-4-amino-3-methoxy-3-methylpyrrolidin-1-yl]-2H,3H,4H-pyrano[2,3-b]pyridin-3-yl]-6-methylthieno[2,3-b]pyridine-2-carboxamide] | > 2000
6 | CO[C@@]1(C)CN(c2ccc3c(c2)OC[C@H](NC(=O)c2sc4nc(C)ccc4c2N)C3)C[C@@H]1N [Example 281, 3-amino-N-[(3R)-7-[(3S,4S)-4-amino-3-methoxy-3-methylpyrrolidin-1-yl]-3,4-dihydro-2H-1-benzopyran-3-yl]-6-methylthieno[2,3-b]pyridine-2-carboxamide] | 200 to 2000
7 | COC[C@H]1C[C@@H](N)CN1c1ccc2c(c1)OC[C@H](NC(=O)c1sc3nc(C)ccc3c1N)C2 [Example 262, 3-amino-N-[(3R)-7-[(2R,4R)-4-amino-2-(methoxymethyl)pyrrolidin-1-yl]-3,4-dihydro-2H-1-benzopyran-3-yl]-6-methylthieno[2,3-b]pyridine-2-carboxamide] | 200 to 2000
8 | CO[C@@H]1[C@@H](N)CN(c2ccc3c(c2)OC[C@H](NC(=O)c2sc4nc(C)ccc4c2N)C3)[C@H]1C [Example 283, 3-amino-N-[(3R)-7-[(2S,3R,4S)-4-amino-3-methoxy-2-methylpyrrolidin-1-yl]-3,4-dihydro-2H-1-benzopyran-3-yl]-6-methylthieno[2,3-b]pyridine-2-carboxamide] | 50 to 200
9 | Cc1ccc2c(N)c(C(=O)N[C@H]3COc4cc(N5C[C@@H](N)[C@@H](F)C5)ccc4C3)sc2n1 (single isomer, unassigned) [Example 3-5] | 200 to 2000
10 | CO[C@]12CNC[C@H]1CN(c1ccc3c(c1)OC[C@H](NC(=O)c1sc4nc(C)ccc4c1N)C3)C2 [Example 291, N-[(3R)-7-[(3aS,6aS)-3a-methoxy-octahydropyrrolo[3,4-c]pyrrol-2-yl]-3,4-dihydro-2H-1-benzopyran-3-yl]-3-amino-6-methylthieno[2,3-b]pyridine-2-carboxamide] | 200 to 2000
11 | COC[C@H]1CN(c2nc3c(cc2F)C[C@@H](NC(=O)c2sc4nc(C)ccc4c2N)CC3)C[C@H]1N [Example 301, 3-amino-N-[(6S)-2-[(3S,4S)-3-amino-4-(methoxymethyl)pyrrolidin-1-yl]-3-fluoro-5,6,7,8-tetrahydroquinolin-6-yl]-6-methylthieno[2,3-b]pyridine-2-carboxamide] | > 2000
12 | COC[C@H]1CN(c2ccc3c(n2)CC[C@H](NC(=O)c2sc4nc(C)cnc4c2N)C3)C[C@H]1N [Example 299, 7-amino-N-[(6S)-2-[(3S,4S)-3-amino-4-(methoxymethyl)pyrrolidin-1-yl]-5,6,7,8-tetrahydroquinolin-6-yl]-3-methylthieno[2,3-b]pyrazine-6-carboxamide] | 200 to 2000
13 | N#Cc1c(N2CC3CCC(C2)N3)cc2c(c1F)C[C@@H](NC(=O)c1cnc3c(c1)[C@H]1C[C@H]1CN3)CO2 [Example 265, (6aR,7aS)-N-[(3R)-6-cyano-7-{3,8-diazabicyclo[3.2.1]octan-3-yl}-5-fluoro-3,4-dihydro-2H-1-benzopyran-3-yl]-5H,6H,6aH,7H,7aH-cyclopropa[c]1,8-naphthyridine-2-carboxamide] | 200 to 2000
14 | CCO[C@@H]1CN(c2ccc3c(c2)CC[C@H](NC(=O)c2sc4nc(C)ccc4c2N)C3)C[C@@H]1N [Example 267, 3-amino-N-[(2S)-6-[(3S,4R)-3-amino-4-ethoxypyrrolidin-1-yl]-1,2,3,4-tetrahydronaphthalen-2-yl]-6-methylthieno[2,3-b]pyridine-2-carboxamide] | 200 to 2000
